3 compounds from patent publication US12708608B2, “Methods of treating schizophrenia and other neuropsychiatric disorders” (UNIVERSITY OF ROCHESTER, priority 2018, dated 2026) can be followed below.

“Also recorded” adds a separate entry of the source. Like-named read-outs stand apart in the source and are kept apart here.

Format in all cases: cell-based, human
For experiment [1], the system named is REST shRNAi-transduced SCZ astrocytes. The experiment can be described thus: Potassium (86Rb) uptake by SCZ astrocytes with REST knockdown.
The next experiment has as its system CTR astrocytes. The experiment can be described thus: Potassium (86Rb) uptake by control-derived astrocytes. The note with it: 4 CTR lines, drug-treated. How it is done: (§1) Potassium uptake Astrocytes were plated onto poly-ornithine- and laminin-coated 24-well plates with 30,000 cells/well. For the potassium uptake assay, astrocytes were incubated with ^86Rb (1.0-3.3 uCi/well) for 15 min, and then they were washed three time with ice-cold artificial cerebrospinal fluid (aCSF, 500 μL/well). For cell lysis, 0.5N NaOH (200 μL/well) was put into each well, which was put into 5 ml cocktail liquid (Ultima Gold, Fisher Scientific, 509050575) and measured by scintillation counter (Beckman Coulter, LS6500), and the results were normalized to both total protein (BCA Protein Assay Kit, Fisher Scientific, 23227) and cell number (Hemocytometer, Fisher Scientific, 02-671-54). The aCSF solution contained (in mM) 124 NaCl, 2.5 KCl, 1.75 NaH2PO4, 2 MgCl2, 2 CaCl2, 0.04 Vit.C, 10 glucose and 26 NaHCO3, pH 7.4.
Next, functional K^+ uptake was assessed directly, in cultured SCZ- and CTR-derived astrocytes. To obtain mature SCZ and CTR astrocyte cultures, CD44-sorted astrocyte-biased progenitors were cultured in base media supplemented with 10% fetal bovine serum (FBS) and 20 ng/ml BMP4 for 3 weeks, so as to potentiate the differentiation of mature, glial fibrillary acidic protein (GFAP)-expressing, fiber-bearing astrocytes (FIGS. 5A-5C). […] Astrocytes from 4 different SCZ and 4 different CTR lines were then incubated with ^86Rb, a surrogate monovalent cation for K^+ uptake (Larsen et al., “Contributions of the Na(+)/K(+)-ATPase, NKCC1, and Kir4.1 to Hippocampal K(+) Clearance and Volume Responses,” Glia 62:608-622 (2014), which is hereby incorporated by reference in its entirety), and rubidium uptake measured as a function of both cell number and total protein.

Experiment [2] has as its system REST-overexpressing CTR astrocytes. The experiment can be described thus: Potassium (86Rb) uptake by CTR astrocytes transduced to over-express REST.
A further experiment relates to SCZ astrocytes. Briefly: Potassium (86Rb) uptake by schizophrenia-derived astrocytes. To be noted: 4 SCZ lines, drug-treated. As to the method:
as §1, with “The aCSF solution contained (in mM) 124 NaCl, 2.5 KCl, 1.75 NaH2PO4, 2 MgCl2, 2 CaCl2, 0.04 Vit.C, 10 glucose and 26 NaHCO3, pH 7.4.” left out
Next, functional K^+ uptake was assessed directly, in cultured SCZ- and CTR-derived astrocytes. […] Astrocytes from 4 different SCZ and 4 different CTR lines were then incubated with ^86Rb, a surrogate monovalent cation for K^+ uptake (Larsen et al., “Contributions of the Na(+)/K(+)-ATPase, NKCC1, and Kir4.1 to Hippocampal K(+) Clearance and Volume Responses,” Glia 62:608-622 (2014), which is hereby incorporated by reference in its entirety), and rubidium uptake measured as a function of both cell number and total protein.
To test this postulate, lentivirus was used to overexpress REST in CTR glial cells, and K^+ uptake by the transduced cells was assessed.

`CCCCNc1cc(C(=O)O)cc(S(N)(=O)=O)c1Oc1ccccc1` [bumetanide]: the “K+ uptake by SCZ glia with REST knockdown” value in experiment [1] (86Rb uptake, REST shRNAi-transduced SCZ astrocytes, drug-treated) is “significantly reduced; also recorded: significantly inhibited”. Further, the “K+ uptake by CTR astrocytes” value in the experiment on CTR astrocytes was “significantly inhibited; also recorded: efficiently decreased”. Further, the “K+ uptake by REST-overexpressing CTR astrocytes” value in experiment [2] (86Rb uptake, lentiviral-REST transduced CTR astrocytes, drug-treated) is listed as “Neither ouabain nor bumetanide further decreased”. For the same compound, the “K+ uptake by SCZ astrocytes” value in the experiment with SCZ astrocytes was “neither ouabain nor bumetanide affected; also recorded: neither affected”.

As for `C[C@@H]1O[C@@H](O[C@H]2C[C@@H](O)[C@]3(CO)[C@H]4[C@H](O)C[C@]5(C)[C@@H](C6=CC(=O)OC6)CC[C@]5(O)[C@@H]4CC[C@]3(O)C2)[C@H](O)[C@H](O)[C@H]1O` [ouabain], the “K+ uptake by SCZ glia with REST knockdown” value in experiment [1] is recorded as “significantly reduced; also recorded: significantly inhibited”. Further, the “K+ uptake by CTR astrocytes” value is “significantly inhibited; also recorded: efficiently decreased” with CTR astrocytes and “significantly inhibited” in the experiment with CTR astrocytes (listed as Ouabain). Besides, the “K+ uptake by REST-overexpressing CTR astrocytes” value in experiment [2] is reported as “Neither ouabain nor bumetanide further decreased”. The “K+ uptake by SCZ astrocytes” value in the experiment with SCZ astrocytes is listed as “neither ouabain nor bumetanide affected; also recorded: neither affected”.

Take “tertiapin (ALCNCNRIIIPHMCWKKCGKK; UniProt P56587 1-21, looked up) [drug which targets Kir (inwardly rectifying K+) channels]”: the “K+ uptake by CTR astrocytes” value in the experiment on CTR astrocytes is listed as “did not”.
